A word on the melting point: it is the temperature, or range, at which the solid turns liquid. A word on the inhibition: it is the change of the read-out against control, counted positive when it falls.

The results in this text go back to patent US9512120B2, “Microbicidally active imidazopyridine derivatives” (Syngenta Participations AG, priority 2013, dated 2016).

Each structure is given as a SMILES string.

Data set [1] deals with Blumeria graminis f. Sp. Tritici (Erysiphe graminis f. Sp. Tritici). Briefly: Blumeria graminis f. sp. tritici / wheat / leaf disc preventative (powdery mildew on wheat). The format is in vivo. Particulars: foliar, wheat leaf segments cv. Kanzler, inoculated 1 day after application, assessed 6-8 days after application, read-out: control of Blumeria graminis (percent disease control compared to untreated). The procedure: Blumeria graminis f. Sp. Tritici (Erysiphe graminis f. Sp. Tritici)/Wheat/Leaf Disc Preventative (Powdery Mildew on Wheat):
Wheat leaf segments cv. Kanzler were placed on agar in a 24-well plate and sprayed with the formulated test compound diluted in water at an application rate of 200 ppm. The leaf disks were inoculated by shaking powdery mildew infected plants above the test plates 1 day after application. The inoculated leaf disks were incubated at 20° C. and 60% relative humidity under a light regime of 24 h darkness followed by 12 h/12 h (dark/light) in a climate chamber and the activity of a compound was assessed as percent disease control compared to untreated when an appropriate level of disease damage appears on untreated check leaf segments (6-8 days after application). The following compounds gave at least 80% control of Blumeria graminis at 200 ppm when compared to untreated control leaf disks under the same conditions, which show extensive disease development: 2, 13, 23, 50, 59, 61, 67, 75, 85, 86, 89, 90, 93, 102, 103, 107, 134, 136, 137, 138, 139, 141, 145, 151, 153, 154, 163, 173, 174

Data set [2] deals with Puccinia recondita f. sp. Tritici. The data set can be described thus: Puccinia recondita f. sp. tritici / wheat / leaf disc preventative (brown rust). The format is in vivo. Particulars: foliar, wheat leaf segments cv Kanzler, inoculated 1 day after application, assessed 7-9 days after application, read-out: control of Puccinia recondita f. sp. Tritici (percent disease control compared to untreated). The method in brief: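 Leaf segments of wheat cv Kanzler on agar were sprayed with formulated compound at 200 ppm and inoculated with spores 1 day later. Incubation was at 19° C, 75% relative humidity and 12/12 h light/dark. Activity was scored 7-9 days after application as percent disease control versus untreated.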

The test system of data set [3] is Pyrenophora teres. Briefly: Pyrenophora teres / barley / leaf disc preventative (net blotch). Format: in vivo. Particulars: foliar, barley leaf segments cv Hasso, inoculated two days after application, assessed 5-7 days after application, read-out: control of Pyrenophora teres (disease control compared to untreated). In outline: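 Barley cv Hasso leaf segments on agar sprayed with compound at 200 ppm, inoculated with spores two days later. Kept at 20 °C, 65% RH, 12/12 h light; disease control versus untreated scored 5-7 days after application.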

For data set [4], the system named is Botryotinia fuckeliana (Botrytis cinerea). Briefly: Botryotinia fuckeliana (Botrytis cinerea) / liquid culture (gray mould). Particulars: Vogels broth, 24° C., 3-4 days after application, read-out: control of Botryotinia fuckeliana (inhibition of growth, photometric). Format: cell-based. The method in brief:
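Botrytis cinerea conidia in Vogels broth were added to test compound applied from DMSO at 200 ppm. Incubation at 24 °C; growth inhibition read photometrically 3-4 days after application.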

The subject of data set [5] is Mycosphaerella arachidis (Cercospora arachidicola). The data set can be described thus: Mycosphaerella arachidis (Cercospora arachidicola) / liquid culture (early leaf spot). The format is cell-based. Particulars: PDB, 24° C., 4-5 days after application, read-out: control of Mycosphaerella arachidis (inhibition of growth, photometric). The method in brief: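 Conidia suspended in potato dextrose broth and added to test compound from DMSO solution at 200 ppm. Incubated at 24 °C; growth inhibition read photometrically 4-5 days after application.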

Data set [6] deals with Mycosphaerella graminicola (Septoria tritici). The data set can be described thus: Mycosphaerella graminicola (Septoria tritici) / liquid culture (Septoria blotch). The format is cell-based. Particulars: Zymoseptoria tritici, PDB, 24° C., 4-5 days after application, read-out: control of Mycosphaerella graminicola (inhibition of growth, photometric). The method in brief: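 Cryo-stored conidia in potato dextrose broth were added to compound in DMSO at 200 ppm in microtiter plates. Plates were incubated at 24 °C and growth inhibition was measured photometrically 4–5 days after application.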

Data set [7] relates to Gaeumannomyces graminis. The data set can be described thus: Gaeumannomyces graminis / liquid culture (take-all of cereals). Format: cell-based. Particulars: PDB, 24° C., 4-5 days after application, read-out: control of Gaeumannomyces graminis (inhibition of growth, photometric). In outline: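 Mycelial fragments in potato dextrose broth were exposed to compound from DMSO at 200 ppm in microtiter plates. Incubation at 24 °C; growth inhibition read photometrically 4-5 days after application.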

Data set [8] concerns Thanatephorus cucumeris (Rhizoctonia solani). The data set can be described thus: Thanatephorus cucumeris (Rhizoctonia solani) / liquid culture (foot rot, damping-off). The format is cell-based. Particulars: PDB, 24° C., 3-4 days after application, read-out: control of Thanatephorus cucumeris (inhibition of growth, photometric). In outline: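 Mycelial fragments in potato dextrose broth exposed to test compounds at 200 ppm (from DMSO solution), incubated at 24° C. Growth inhibition read photometrically 3-4 days after application.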

Data set [9] deals with Monographella nivalis (Microdochium nivale). The data set can be described thus: Monographella nivalis (Microdochium nivale) / liquid culture (foot rot cereals). Format: cell-based. Particulars: PDB, 24° C., 4-5 days after application, read-out: control of Monographella nivalis (inhibition of growth, photometric). The method in brief:
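Cryostored conidia in potato dextrose broth were added to test compound dispensed from DMSO at 200 ppm. Plates were kept at 24° C, and growth inhibition was read photometrically 4-5 days after application.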

Data set [10] relates to Glomerella lagenarium (Colletotrichum lagenarium). The data set can be described thus: Glomerella lagenarium (Colletotrichum lagenarium) / liquid culture (anthracnose). Particulars: Colletotrichum orbiculare, PDB, 24° C., 3-4 days after application, read-out: control of Glomerella lagenarium (inhibition of growth, photometric). The format is cell-based. In outline:
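Cryopreserved conidia suspended in potato dextrose broth were added to compound in DMSO applied at 200 ppm. Plates incubated at 24° C; growth inhibition read photometrically 3-4 days after application.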

In data set [11] the test system is Plasmopara viticola. The data set can be described thus: Plasmopara viticola / grape / leaf disc preventative. Format: in vivo. Particulars: foliar, grape vine leaf disks, inoculated 1 day after application, assessed 6-8 days after application, read-out: control of Plasmopara viticola (percent disease control compared to untreated).
Data set [12] deals with Sclerotinia sclerotiorum. Briefly: Sclerotinia sclerotiorum liquid culture (cottony rot / white mold). Particulars: PDB, 24° C., 3-4 days after application, read-out: control of Sclerotinia sclerotiorum (inhibition of growth, photometric). Format: cell-based. The method in brief: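 Mycelia fragments of Sclerotinia sclerotiorum in potato dextrose broth were added to compound in DMSO. Cultures incubated at 24° C; growth inhibition determined photometrically 3-4 days after application.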

Data set [13] deals with Phaeosphaeria nodorum (Septoria nodorum). The data set can be described thus: Phaeosphaeria nodorum (Septoria nodorum) / wheat / leaf disc preventative (glume blotch). Particulars: Parastagonospora nodorum, foliar, wheat leaf segments cv Kanzler, inoculated 2 days after application, assessed 5-7 days after application, read-out: control of Phaeosphaeria nodorum (percent disease control compared to untreated). The format is in vivo. The method in brief:
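Wheat leaf segments (cv Kanzler) on agar sprayed with compound at 200 ppm, inoculated with spores 2 days later. Incubated at 20° C., 75% relative humidity, 12/12 h light/dark; percent disease control versus untreated scored 5-7 days after application.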

`CCn1c(-n2ncnc2N)nc2cncc(C3=CCN(C(=O)OC(C)(C)C)CC3)c21` [Compound 107, tert-butyl 4-[2-(5-amino-1,2,4-triazol-1-yl)-1-ethylimidazo[4,5-c]pyridin-7-yl]-3,6-dihydro-2H-pyridine-1-carboxylate] registered a melting point of 183 to 186 °C. For the same compound, in data set [1], the pest or weed control at 200 ppm is ≥ 80%.

As for `CCON=C(C)c1cncc2nc(-n3ncnc3N)n(CC)c12` [Compound 134], the melting point fell in the range of 160 to 165 °C. Also, in data set [2], the pest or weed control at 200 ppm is ≥ 80%. In data set [3], the pest or weed control at 200 ppm was ≥ 80%. The inhibition at 20 ppm in [4] is ≥ 80%. In addition, in data set [5], the inhibition at 20 ppm was ≥ 80%. The inhibition at 20 ppm in [6] was ≥ 80%. Further, the inhibition at 20 ppm in data set [7] was ≥ 80%. Moreover, in [8], the inhibition at 20 ppm is ≥ 80%. Further, in data set [9], the inhibition at 20 ppm is ≥ 80%. Further, in data set [1], the pest or weed control at 200 ppm was ≥ 80%.

`CCn1c(-n2ncnc2N)nc2cncc(C(C)=NO)c21` [Compound 136, 1-[2-(5-amino-1,2,4-triazol-1-yl)-1-ethyl-imidazo[4,5-c]pyridin-7-yl]ethanone oxime] yielded a melting point of 228 to 240 °C. Also, in data set [3], the pest or weed control at 200 ppm is ≥ 80%. Also, the inhibition at 20 ppm in [10] is ≥ 80%. In addition, the inhibition at 20 ppm in data set [7] was ≥ 80%. The pest or weed control at 200 ppm in data set [1] is ≥ 80%.

In turn, `C=CCON=C(C)c1cncc2nc(-n3ncnc3N)n(CC)c12` [Compound 138] yielded a melting point of 142 to 146 °C. The pest or weed control at 200 ppm in [3] was ≥ 80%. Besides, in [4], the inhibition at 20 ppm was ≥ 80%. Further, the inhibition at 20 ppm in data set [10] is ≥ 80%. The inhibition at 20 ppm in data set [6] was ≥ 80%. Also, the inhibition at 20 ppm in data set [7] was ≥ 80%. Besides, the inhibition at 20 ppm in [8] is ≥ 80%. Also, the inhibition at 20 ppm in data set [9] is ≥ 80%. For the same compound, the pest or weed control at 200 ppm in data set [1] was ≥ 80%.

In the case of `CCn1c(-n2ncnc2N)nc2cncc(C(C)=NOCc3ccc(C)cc3)c21` [Compound 139], the pest or weed control at 200 ppm in data set [11], in data set [2], in data set [3] and in data set [1] was ≥ 80% throughout. Also, the inhibition at 20 ppm in data set [4], in data set [10], in data set [5], in data set [6], in data set [7] and in data set [8] was ≥ 80% throughout. Also, the inhibition at 20 ppm in data set [9] and in [12] was ≥ 80% in each case.

`CCn1c(-n2ncnc2N)nc2cncc(C(C)=NOCC3CC3)c21` [Compound 141] gave a melting point of 151 to 163 °C. Moreover, the pest or weed control at 200 ppm in data set [3] was ≥ 80%. Also, the inhibition at 20 ppm in data set [4] was ≥ 80%. In data set [10], the inhibition at 20 ppm is ≥ 80%. In addition, the inhibition at 20 ppm in data set [5] was ≥ 80%. In addition, the inhibition at 20 ppm in [6] was ≥ 80%. Besides, the inhibition at 20 ppm in [7] is ≥ 80%. The inhibition at 20 ppm in [8] is ≥ 80%. For the same compound, in data set [1], the pest or weed control at 200 ppm is ≥ 80%.

In the case of `CCn1c(-n2ncnc2N)nc2cncc(C(C)=NOCc3ccc(Cl)cc3)c21` [Compound 145], the pest or weed control at 200 ppm in [11], in data set [2], in [13], in data set [3] and in data set [1] was ≥ 80% throughout. Besides, the inhibition at 20 ppm in data set [4], in data set [10], in data set [6], in [8], in data set [9] and in data set [12] was ≥ 80% in each case.

`C=C(Cl)CO/N=C(/C)c1cncc2nc(-n3ncnc3N)n(CC)c12` [Compound 151]: the pest or weed control at 200 ppm in data set [11], in data set [2], in data set [13], in data set [3] and in data set [1] was ≥ 80% each time. Moreover, the inhibition at 20 ppm in data set [4], in [10], in data set [6], in [8], in [9] and in data set [12] was ≥ 80% throughout.

For the compound `CCn1c(-n2ncnc2N)nc2cncc(/C(C)=N/OC/C=C(\C)Cl)c21` [Compound 154, 2-[7-[(E)-N-[(E)-3-chlorobut-2-enoxy]-C-methyl-carbonimidoyl]-1-ethyl-imidazo[4,5-c]pyridin-2-yl]-1,2,4-triazol-3-amine], the pest or weed control at 200 ppm in data set [11], in data set [2], in data set [3] and in data set [1] was ≥ 80% throughout. Besides, the inhibition at 20 ppm in data set [4], in data set [10], in data set [6], in data set [8] and in [12] was ≥ 80% throughout.

With `CCn1c(-n2ncnc2N)nc2cncc(C(C)=NOCc3c(F)c(F)c(F)c(F)c3F)c21` [Compound 163], the pest or weed control at 200 ppm in data set [11], in data set [2], in data set [3] and in data set [1] was ≥ 80% throughout. In addition, the inhibition at 20 ppm in data set [4], in data set [10], in data set [5], in data set [6] and in data set [8] was ≥ 80% in each case.
